Legend:
Assay type in all cases: in vivo
[1] = tested on: ABUTH, Velvetleaf, Abutilon theophrasti, Medic.; assay: Preemergence herbicidal evaluation (Example 148); settings: rating scale 0-9, two to four weeks after treatment
Method in brief: (§1)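 Seeds mixed with potting soil and planted in cups, then sprayed preemergence with aqueous acetone solution of test compound at about 0.125 to 0.250 kg per hectare. Kept under greenhouse conditions; visual rating versus untreated control 2–4 weeks after treatment, scoring stand, vigor, malformation, size and chlorosis. Repeat tests averaged.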

[2] = tested on: IPOHE, Morningglory, Ivyleaf, Ipomoea hederacea, (L)Jacq.; assay: Preemergence herbicidal evaluation (Example 148); settings: rating scale 0-9, two to four weeks after treatment
Method in brief: as §1

[3] = tested on: ALOMY, Blackgrass, Alopecurus myosuroides; assay: Preemergence herbicidal evaluation (Example 148); settings: rating scale 0-9, two to four weeks after treatment
Method in brief: as §1

[4] = tested on: TRZAW, Winter wheat, Tritium Aestivum, L. (Winter); assay: Preemergence herbicidal evaluation (Example 148); settings: rating scale 0-9, two to four weeks after treatment
Method in brief: as §1

[5] = tested on: ECHCG, Barnyardgrass, Echinochloa crusgalli, (L.)Beau; assay: Preemergence herbicidal evaluation (Example 148); settings: rating scale 0-9, two to four weeks after treatment
Method in brief: as §1

[6] = tested on: XANST, Cocklebur, Xanthium strumariam; assay: Preemergence herbicidal evaluation (Example 148); settings: rating scale 0-9, two to four weeks after treatment
Method in brief: as §1

[7] = tested on: CHEAL, Lambsquarters, Chenopodium album, L. Common; assay: Preemergence herbicidal evaluation (Example 148); settings: rating scale 0-9, two to four weeks after treatment
Method in brief: as §1

[8] = tested on: AMBEL, Ragweed, Common, Ambrosia artemiisifolia, L.; assay: Preemergence herbicidal evaluation (Example 148); settings: rating scale 0-9, two to four weeks after treatment
Method in brief: as §1

[9] = tested on: DIGSA, Crabgrass, (Hairy) L, Digitaria sanguinalis, (L)Scop; assay: Preemergence herbicidal evaluation (Example 148); settings: rating scale 0-9, two to four weeks after treatment
Method in brief: as §1

[10] = tested on: ZEAMX, Field corn, Zea mays L.; assay: Preemergence herbicidal evaluation (Example 148); settings: rating scale 0-9, two to four weeks after treatment
Method in brief: as §1

[11] = tested on: GLXMA, Soybean, Glycine max, (L.) Merr.; assay: Preemergence herbicidal evaluation (Example 148); settings: rating scale 0-9, two to four weeks after treatment
Method in brief: as §1

[12] = tested on: SETVI, Green foxtail, Setaria viridis, (L.)Beau; assay: Preemergence herbicidal evaluation (Example 148); settings: rating scale 0-9, two to four weeks after treatment
Method in brief: as §1

[13] = tested on: ABUTH, Velvetleaf, Abutilon theophrasti, Medic.; assay: Postemergence herbicidal evaluation (Example 147); settings: rating scale 0-9, two to three weeks after treatment
Method in brief: (§2)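 ~2-wk seedlings; spray 40 psi; 0.016–0.032 kg/ha a.i. in acetone/water 80/20 + 1.0% methylated seed oil; greenhouse; rated 0–9 visually at 2–3 wk; multiple tests averaged.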

[14] = tested on: IPOHE, Morningglory, Ivyleaf, Ipomoea hederacea, (L)Jacq.; assay: Postemergence herbicidal evaluation (Example 147); settings: rating scale 0-9, two to three weeks after treatment
Method in brief: as §2

[15] = tested on: ALOMY, Blackgrass, Alopecurus myosuroides; assay: Postemergence herbicidal evaluation (Example 147); settings: rating scale 0-9, two to three weeks after treatment
Method in brief: as §2

[16] = tested on: TRZAW, Winter wheat, Tritium Aestivum, L. (Winter); assay: Postemergence herbicidal evaluation (Example 147); settings: rating scale 0-9, two to three weeks after treatment
Method in brief: as §2

[17] = tested on: ECHCG, Barnyardgrass, Echinochloa crusgalli, (L.)Beau; assay: Postemergence herbicidal evaluation (Example 147); settings: rating scale 0-9, two to three weeks after treatment
Method in brief: as §2

[18] = tested on: XANST, Cocklebur, Xanthium strumariam; assay: Postemergence herbicidal evaluation (Example 147); settings: rating scale 0-9, two to three weeks after treatment
Method in brief: as §2

[19] = tested on: CHEAL, Lambsquarters, Chenopodium album, L. Common; assay: Postemergence herbicidal evaluation (Example 147); settings: rating scale 0-9, two to three weeks after treatment
Method in brief: as §2

[20] = tested on: AMBEL, Ragweed, Common, Ambrosia artemiisifolia, L.; assay: Postemergence herbicidal evaluation (Example 147); settings: rating scale 0-9, two to three weeks after treatment
Method in brief: as §2

[21] = tested on: DIGSA, Crabgrass, (Hairy) L, Digitaria sanguinalis, (L)Scop; assay: Postemergence herbicidal evaluation (Example 147); settings: rating scale 0-9, two to three weeks after treatment
Method in brief: as §2

[22] = tested on: ZEAMX, Field corn, Zea mays L.; assay: Postemergence herbicidal evaluation (Example 147); settings: rating scale 0-9, two to three weeks after treatment
Method in brief: as §2

[23] = tested on: GLXMA, Soybean, Glycine max, (L.) Merr.; assay: Postemergence herbicidal evaluation (Example 147); settings: rating scale 0-9, two to three weeks after treatment
Method in brief: as §2

[24] = tested on: SETVI, Green foxtail, Setaria viridis, (L.)Beau; assay: Postemergence herbicidal evaluation (Example 147); settings: rating scale 0-9, two to three weeks after treatment
Method in brief: as §2

## CN(Cc1cccc(Cl)c1)S(=O)(=O)NC(=O)c1cc(-n2c(=O)cc(C(F)(F)F)n(C)c2=O)c(F)cc1Cl [Example 55]
[1]; rate 0.125 kg/ha
  Preemergence herbicidal rating ABUTH: 9.0
[1]; rate 0.25 kg/ha
  Preemergence herbicidal rating ABUTH: 9.0
[2]; rate 0.125 kg/ha
  Preemergence herbicidal rating IPOHE: 8.0
[2]; rate 0.25 kg/ha
  Preemergence herbicidal rating IPOHE: 9.0
[3]; rate 0.125 kg/ha
  Preemergence herbicidal rating ALMOY: 0.0
[3]; rate 0.25 kg/ha
  Preemergence herbicidal rating ALMOY: 0.0
[4]; rate 0.125 kg/ha
  Preemergence herbicidal rating TRZAW: 1.0
[4]; rate 0.25 kg/ha
  Preemergence herbicidal rating TRZAW: 2.0
[5]; rate 0.125 kg/ha
  Preemergence herbicidal rating ECHCG: 5.0
[5]; rate 0.25 kg/ha
  Preemergence herbicidal rating ECHCG: 9.0
[6]; rate 0.125 kg/ha
  Preemergence herbicidal rating XANST: 6.0
[6]; rate 0.25 kg/ha
  Preemergence herbicidal rating XANST: 7.0
[7]; rate 0.125 kg/ha
  Preemergence herbicidal rating CHEAL: 8.0
[7]; rate 0.25 kg/ha
  Preemergence herbicidal rating CHEAL: 9.0
[8]; rate 0.125 kg/ha
  Preemergence herbicidal rating AMBEL: 8.0
[8]; rate 0.25 kg/ha
  Preemergence herbicidal rating AMBEL: 9.0
[9]; rate 0.125 kg/ha
  Preemergence herbicidal rating DIGSA: 8.0
[9]; rate 0.25 kg/ha
  Preemergence herbicidal rating DIGSA: 8.0
[10]; rate 0.125 kg/ha
  Preemergence herbicidal rating ZEAMX: 0.0
[10]; rate 0.25 kg/ha
  Preemergence herbicidal rating ZEAMX: 1.0
[11]; rate 0.125 kg/ha
  Preemergence herbicidal rating GLXMA: 8.0
[11]; rate 0.25 kg/ha
  Preemergence herbicidal rating GLXMA: 8.0
[12]; rate 0.125 kg/ha
  Preemergence herbicidal rating SETVI: 6.0
[12]; rate 0.25 kg/ha
  Preemergence herbicidal rating SETVI: 8.0
[13]; rate 0.016 kg/ha
  Postemergence herbicidal rating ABUTH: 9.0
[13]; rate 0.032 kg/ha
  Postemergence herbicidal rating ABUTH: 9.0
[14]; rate 0.016 kg/ha
  Postemergence herbicidal rating IPOHE: 8.0
[14]; rate 0.032 kg/ha
  Postemergence herbicidal rating IPOHE: 9.0
[15]; rate 0.016 kg/ha
  Postemergence herbicidal rating ALMOY: 2.0
[15]; rate 0.032 kg/ha
  Postemergence herbicidal rating ALMOY: 2.0
[16]; rate 0.016 kg/ha
  Postemergence herbicidal rating TRZAW: 6.0
[16]; rate 0.032 kg/ha
  Postemergence herbicidal rating TRZAW: 6.0
[17]; rate 0.016 kg/ha
  Postemergence herbicidal rating ECHCG: 7.0
[17]; rate 0.032 kg/ha
  Postemergence herbicidal rating ECHCG: 7.0
[18]; rate 0.016 kg/ha
  Postemergence herbicidal rating XANST: 9.0
[18]; rate 0.032 kg/ha
  Postemergence herbicidal rating XANST: 8.0
[19]; rate 0.016 kg/ha
  Postemergence herbicidal rating CHEAL: 7.0
[19]; rate 0.032 kg/ha
  Postemergence herbicidal rating CHEAL: 7.0
[20]; rate 0.016 kg/ha
  Postemergence herbicidal rating AMBEL: 8.0
[20]; rate 0.032 kg/ha
  Postemergence herbicidal rating AMBEL: 9.0
[21]; rate 0.016 kg/ha
  Postemergence herbicidal rating DIGSA: 5.0
[21]; rate 0.032 kg/ha
  Postemergence herbicidal rating DIGSA: 6.0
[22]; rate 0.016 kg/ha
  Postemergence herbicidal rating ZEAMX: 8.0
[22]; rate 0.032 kg/ha
  Postemergence herbicidal rating ZEAMX: 8.0
[23]; rate 0.016 kg/ha
  Postemergence herbicidal rating GLXMA: 8.0
[23]; rate 0.032 kg/ha
  Postemergence herbicidal rating GLXMA: 8.0
[24]; rate 0.016 kg/ha
  Postemergence herbicidal rating SETVI: 7.0
[24]; rate 0.032 kg/ha
  Postemergence herbicidal rating SETVI: 8.0

## C#CCN(C)S(=O)(=O)NC(=O)c1cc(-n2c(=O)cc(C(F)(F)F)n(C)c2=O)c(F)cc1Cl [Example 57]
[1]; rate 0.125 kg/ha
  Preemergence herbicidal rating ABUTH: 2.0
[1]; rate 0.25 kg/ha
  Preemergence herbicidal rating ABUTH: 2.0
[2]; rate 0.125 kg/ha
  Preemergence herbicidal rating IPOHE: 0.0
[2]; rate 0.25 kg/ha
  Preemergence herbicidal rating IPOHE: 3.0
[3]; rate 0.125 kg/ha
  Preemergence herbicidal rating ALMOY: 0.0
[3]; rate 0.25 kg/ha
  Preemergence herbicidal rating ALMOY: 0.0
[4]; rate 0.125 kg/ha
  Preemergence herbicidal rating TRZAW: 0.0
[4]; rate 0.25 kg/ha
  Preemergence herbicidal rating TRZAW: 0.0
[5]; rate 0.125 kg/ha
  Preemergence herbicidal rating ECHCG: 1.0
[5]; rate 0.25 kg/ha
  Preemergence herbicidal rating ECHCG: 2.0
[6]; rate 0.125 kg/ha
  Preemergence herbicidal rating XANST: 0.0
[6]; rate 0.25 kg/ha
  Preemergence herbicidal rating XANST: 0.0
[7]; rate 0.125 kg/ha
  Preemergence herbicidal rating CHEAL: 6.0
[7]; rate 0.25 kg/ha
  Preemergence herbicidal rating CHEAL: 8.0
[8]; rate 0.125 kg/ha
  Preemergence herbicidal rating AMBEL: 2.0
[8]; rate 0.25 kg/ha
  Preemergence herbicidal rating AMBEL: 2.0
[9]; rate 0.125 kg/ha
  Preemergence herbicidal rating DIGSA: 1.0
[9]; rate 0.25 kg/ha
  Preemergence herbicidal rating DIGSA: 3.0
[10]; rate 0.125 kg/ha
  Preemergence herbicidal rating ZEAMX: 0.0
[10]; rate 0.25 kg/ha
  Preemergence herbicidal rating ZEAMX: 0.0
[11]; rate 0.125 kg/ha
  Preemergence herbicidal rating GLXMA: 0.0
[11]; rate 0.25 kg/ha
  Preemergence herbicidal rating GLXMA: 1.0
[12]; rate 0.125 kg/ha
  Preemergence herbicidal rating SETVI: 0.0
[12]; rate 0.25 kg/ha
  Preemergence herbicidal rating SETVI: 1.0
[13]; rate 0.016 kg/ha
  Postemergence herbicidal rating ABUTH: 2.0
[13]; rate 0.032 kg/ha
  Postemergence herbicidal rating ABUTH: 5.0
[14]; rate 0.016 kg/ha
  Postemergence herbicidal rating IPOHE: 6.0
[14]; rate 0.032 kg/ha
  Postemergence herbicidal rating IPOHE: 4.0
[15]; rate 0.016 kg/ha
  Postemergence herbicidal rating ALMOY: 0.0
[15]; rate 0.032 kg/ha
  Postemergence herbicidal rating ALMOY: 1.0
[16]; rate 0.016 kg/ha
  Postemergence herbicidal rating TRZAW: 2.0
[16]; rate 0.032 kg/ha
  Postemergence herbicidal rating TRZAW: 2.5
[17]; rate 0.016 kg/ha
  Postemergence herbicidal rating ECHCG: 1.0
[17]; rate 0.032 kg/ha
  Postemergence herbicidal rating ECHCG: 2.0
[18]; rate 0.016 kg/ha
  Postemergence herbicidal rating XANST: 2.0
[18]; rate 0.032 kg/ha
  Postemergence herbicidal rating XANST: 3.0
[19]; rate 0.016 kg/ha
  Postemergence herbicidal rating CHEAL: 1.0
[19]; rate 0.032 kg/ha
  Postemergence herbicidal rating CHEAL: 2.0
[20]; rate 0.016 kg/ha
  Postemergence herbicidal rating AMBEL: 1.0
[20]; rate 0.032 kg/ha
  Postemergence herbicidal rating AMBEL: 2.0
[21]; rate 0.016 kg/ha
  Postemergence herbicidal rating DIGSA: 1.0
[21]; rate 0.032 kg/ha
  Postemergence herbicidal rating DIGSA: 2.0
[22]; rate 0.016 kg/ha
  Postemergence herbicidal rating ZEAMX: 2.0
[22]; rate 0.032 kg/ha
  Postemergence herbicidal rating ZEAMX: 5.0
[23]; rate 0.016 kg/ha
  Postemergence herbicidal rating GLXMA: 6.0
[23]; rate 0.032 kg/ha
  Postemergence herbicidal rating GLXMA: 6.5
[24]; rate 0.016 kg/ha
  Postemergence herbicidal rating SETVI: 1.0
[24]; rate 0.032 kg/ha
  Postemergence herbicidal rating SETVI: 3.0

Reference: patent US6689773B2, “Uracil substituted phenyl sulfamoyl carboxamides” (BASF Aktiengesellschaft, priority 2000, dated 2004)
